Measurements from patent US20050059726A1, “Pyrrolidine-2-ones as factor xa inhibitors” (priority 2001, published 2005).

Molecular target: human Factor Xa (Homo sapiens, UniProt P00742)
Assay: In vitro assay for inhibition of Factor Xa (2), fluorogenic assay
Format: biochemical
Details: substrate Rhodamine 110, bis-(CBZ-glycylglycyl-L-arginine amide 10 μM), Ki calculated from IC50
Procedure: In Vitro Assay for Inhibition of Factor Xa (2)
All other compounds of the present invention were tested for their Factor Xa inhibitory activity as determined in vitro by their ability to inhibit human Factor Xa in a fluorogenic assay, using Rhodamine 110, bis-(CBZ-glycylglycyl-L-arginine amide as the fluorogenic substrate. Compounds were diluted from a 10 mM stock solution in dimethylsulfoxide at appropriate concentrations. Assay was performed at room temperature using buffer consisting of: 50 mM Tris-HCl, 150 mM NaCl, 5 mM CaCl2, pH 7.4. containing human Factor Xa (final conc. Of 0.0003U.ml−1). Compound and enzyme were preincubated for 15 min prior to addition of the substrate (final conc. of 10 μM). The reaction was stopped after 3 hrs with the addition of H-D-PHE-PRO-ARG-Chloromethylketone. […] To obtain IC50 values the data were analysed using ActivityBase® and XLfit®.
Calculation of Ki values:
Ki=IC50/(1+[Substrate]/Km)
The Ki value for the above assay can be obtained by dividing the IC50 value by 1.6.

human Factor Xa, sequence (P00742 235-488 limits assumed): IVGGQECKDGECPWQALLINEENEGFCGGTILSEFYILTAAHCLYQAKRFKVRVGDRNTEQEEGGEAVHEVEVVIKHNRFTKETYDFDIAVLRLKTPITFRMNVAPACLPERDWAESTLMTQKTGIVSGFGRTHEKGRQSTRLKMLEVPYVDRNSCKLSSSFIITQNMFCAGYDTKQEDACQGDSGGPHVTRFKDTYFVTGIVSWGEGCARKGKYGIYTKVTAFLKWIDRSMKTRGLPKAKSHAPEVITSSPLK
human Factor Xa, sequence (P00742 41-179 partner limits assumed): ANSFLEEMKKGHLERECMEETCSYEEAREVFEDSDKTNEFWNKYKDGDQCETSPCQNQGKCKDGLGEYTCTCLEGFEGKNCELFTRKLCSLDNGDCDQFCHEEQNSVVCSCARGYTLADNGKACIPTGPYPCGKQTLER

Ki [µM]	Structure (SMILES)
< 0.01	O=C1[C@@H](NS(=O)(=O)/C=C/c2ccc(Cl)s2)CCN1c1ccc(-c2ccccc2[N+](=O)[O-])cc1F [Example 18, (E)-2-(5-Chlorothien-2-yl)-N-[(3S)-1-(3-fluoro-2′-nitro-1,1′-biphenyl-4-yl)-2-oxopyrrolidin-3-yl]ethenesulfonamide]
< 0.01	CN(C)S(=O)(=O)c1ccccc1-c1ccc(N2CC[C@H](NS(=O)(=O)/C=C/c3ccc(Cl)s3)C2=O)nc1 [Example 28]
< 0.2	O=C1[C@H](NS(=O)(=O)c2cc3ccc(Cl)cc3s2)CCN1c1ccc([N+](=O)[O-])cc1F [Example 94, 6-Chloro-N-[(3R)-1-(2-fluoro-4-nitrophenyl)-2-oxopyrrolidinyl]-1-benzothiophene-2-sulfonamide]
< 0.01	O=C1[C@@H](NS(=O)(=O)/C=C/c2ccc(Cl)s2)CCN1c1ccc(-c2ccccc2C(F)(F)F)cn1 [Example 24, (E)-2-(5-Chlorothien-2-yl)-N-((3S)-2-oxo-1-{5-[2-(trifluoromethyl)phenyl]pyridin-2-yl}pyrrolidin-3yl)ethenesulfonamide]
< 1	O=C1[C@@H](NS(=O)(=O)c2ccc3cc(Cl)ccc3c2)CCN1c1ccc(N2CCOCC2)c(F)c1 [Example 103, 6-Chloro-N-{(3S)-1-[3-fluoro-4-(4-morpholinyl)phenyl]-2-oxopyrrolidinyl}-2-naphthalenesulfonamide]
< 0.2	CC(C)Oc1ccccc1-c1ccc(N2CC[C@H](NS(=O)(=O)/C=C/c3ccc(Cl)s3)C2=O)nc1 [Example 31, (E)-2-(5-Chlorothien-2-yl)-N-{(3S)-1-[5-(2-isopropoxyphenyl)pyridin-2-yl]-2-oxopyrrolidin-3-yl}ethenesulfonamide]
< 0.02	O=Cc1ccsc1-c1ccc(N2CC[C@H](NS(=O)(=O)c3ccc4cc(Cl)ccc4c3)C2=O)c(F)c1 [Example 70, 6-Chloro-N-{(3S)-1-[2-fluoro-4-(3-formylthien-2-yl)phenyl]-2-oxopyrrolidin-3-yl}naphthalene-2-sulfonamide]
< 0.2	CSc1ccc(-c2ccc(N3CC[C@H](NS(=O)(=O)c4ccc5cc(Cl)ccc5c4)C3=O)c(F)c2)cn1 [Example 60, 6-Chloro-N-((3S)-1-{2-fluoro-4-[6-(methylthio)pyridin-3-yl]phenyl}-2-oxopyrrolidin-3-yl)naphthalene-2-sulfonamide]
< 0.02	CS(=O)(=O)c1ccccc1-c1ccc(N2CC[C@H](NS(=O)(=O)c3cccc(CN)c3)C2=O)c(F)c1 [Example 53, 3-(Aminomethyl)-N-{(3S)-1-[3-fluoro-2′-(methylsulfonyl)-1,1′-biphenyl-4-yl]-2-oxopyrrolidin-3-yl}benzenesulfonamide]
< 0.02	CS(=O)(=O)c1ccccc1-c1ccc(N2CC[C@H](NS(=O)(=O)c3c(Cl)sc4ccsc34)C2=O)c(F)c1 [Example 88, 2-Chloro-N-{(3S)-1-[3-fluoro-2′-(methylsulfonyl)-1,1′-biphenyl-4-yl]-2-oxopyrrolidin-3-yl}thieno[3.2-b]thiophene-3-sulfonamide]
< 0.2	O=C1[C@@H](NS(=O)(=O)c2ccc3cc(Cl)ccc3c2)CCN1c1ccc(-c2cncc(Br)c2)cc1F [Example 61, N-{(3S)-1-[4-(5-Bromopyridin-3-yl)-2-fluorophenyl]-2-oxopyrrolidin-3-yl}-6-chloronaphthalene-2-sulfonamide]
< 0.01	CS(=O)(=O)c1ccccc1-c1ccc(N2CC[C@H](N(CCN3CCOCC3)S(=O)(=O)/C=C/c3ccc(Cl)s3)C2=O)c(F)c1 [Example 45, (E)-2-(5-Chlorothien-2-yl)-N-{(3S)-1-[3-fluoro-2′-(methylsulfonyl)-1,1′-biphenyl-4-yl]-2-oxopyrrolidin-3-yl}-N-(2-morpholin-4-ylethyl)ethenesulfonamide]
< 0.2	N#Cc1ccc(N2CC[C@H](NS(=O)(=O)CCc3ccc(Cl)s3)C2=O)c(F)c1 [Example 99, 2-(5-Chlorothien-2-yl)-N-[(3S)-1-(4-cyano-2-fluorophenyl)-2-oxopyrrolidin-3-yl]ethanesulfonamide]
< 0.01	N#Cc1ccc(N2CC[C@H](NS(=O)(=O)c3cc4ccc(Cl)cc4s3)C2=O)c(F)c1 [Example 97, 6-Chloro-N-[(3S)-1-(4-cyano-2-fluorophenyl)-2-oxopyrrolidin-3-yl]-1-benzothiophene-2-sulfonamide]
< 0.01	CNS(=O)(=O)c1ccccc1-c1ccc(N2CC[C@H](NS(=O)(=O)/C=C/c3ccc(Cl)s3)C2=O)nc1 [Example 29, 2-{6-[(3S)-3-({[(E)-2-(5-Chlorothien-2-yl)ethenyl]sulfonyl}amino)-2-oxopyrrolidin-1-yl]pyridin-3-yl}-N-methylbenzenesulfonamide]
< 0.01	CS(=O)(=O)c1ccccc1-c1ccc(N2CC[C@H](NS(=O)(=O)c3cc4cc(Cl)ccc4s3)C2=O)c(F)c1 [Example 12, 5-Chloro-N-{(3S)-1-[3-fluoro-2′-(methylsulfonyl)-1,1′-biphenyl-4-yl]-2-oxopyrrolidin-3yl}-1-benzothiophene-2-sulfonamide]
< 0.2	COc1ccc(-c2ccc(N3CC[C@H](NS(=O)(=O)c4ccc5cc(Cl)ccc5c4)C3=O)c(F)c2)cn1 [Example 58, 6-Chloro-N-{(3S)-1-[2-fluoro-4-(6-methoxypyridin-3-yl)phenyl]-2-oxopyrrolidin-3-yl}naphthalene-2-sulfonamide]
< 0.01	CN(C)C(=O)c1ccc(N2CC[C@H](NS(=O)(=O)c3cc4ccc(Cl)cc4s3)C2=O)c(F)c1 [Example 109, 4-((3S)-3-{[(6-Chloro-1-benzothien-2-yl)sulfonyl]amino}-2-oxopyrrolidin-1-yl)-3-fluoro-N,N-dimethylbenzamide]
< 1	CN(C)c1ccc2cc(S(=O)(=O)N[C@H]3CCN(c4ccc(-c5ccccc5S(C)(=O)=O)cc4F)C3=O)ccc2c1 [Example 9, 6-(Dimethylamino)-N-{(3S)-1-[3-fluoro-2′-(methylsulfonyl)-1,1′-biphenyl-4-yl]-2-oxopyrrolidin-3-yl}naphthalene-2-sulfonamide]
< 0.01	CS(=O)(=O)c1ccccc1-c1ccc(N2CC[C@H](NS(=O)(=O)/C=C/c3ccc(Cl)cc3)C2=O)c(F)c1 [Example 7, (E)-2-(4-Chlorophenyl)-N-{(3S)-1-[3-fluoro-2′-(methylsulfonyl)-1,1′-biphenyl-4-yl]-2-oxopyrrolidin-3-yl}ethenesulfonamide]
< 0.02	O=C1[C@@H](NS(=O)(=O)c2ccc(-c3ccc(Cl)s3)s2)CCN1c1ccc([N+](=O)[O-])cc1F [Example 96, 5′-Chloro-N-[(3S)-1-(2-fluoro-4-nitrophenyl)-2-oxopyrrolidin-3-yl]-2,2′-bithiophene-5-sulfonamide]
< 0.2	CC(O)c1ccc(N2CC[C@H](NS(=O)(=O)/C=C/c3ccc(Cl)s3)C2=O)c(F)c1 (stereo partly drawn) [Example 135, (E)-2-(5-Chlorothien-2-yl)-N-{(3S)-1-[2-fluoro-4-(1-hydroxyethyl)phenyl]-2-oxopyrrolidin-3-yl}ethenesulfonamide]
< 0.01	O=C1[C@@H](NS(=O)(=O)c2ccc3cc(Cl)ccc3c2)CCN1c1ccc(-c2cccnc2Cl)cc1F [Example 78, 6-Chloro-N-{(3S)-1-[4-(2-chloropyridin-3-yl)-2-fluorophenyl]-2-oxopyrrolidin-3-yl}naphthalene-2-sulfonamide]
< 0.01	O=C1[C@@H](NS(=O)(=O)c2ccc3cc(Cl)ccc3c2)CCN1c1ccc(-c2ccncc2)cc1F [Example 55, 6-Chloro-N-[(3S)-1-(2-fluoro-4-pyridin-4-ylphenyl)-2-oxopyrrolidin-3-yl]naphthalene-2-sulfonamide]
